# How the values were obtained:
# Assay type in all cases: functional
# [1] = test system: SF-539; test: Cytotoxicity against human SF539 cells assessed as cell growth at 10^-4 M after 48 hrs by SRB assay; conditions: SF-539, 48 h, read-out: Activity
# [2] = test system: K562; test: Cytotoxicity against human K562 cells after 48 hrs by SRB assay; conditions: K562, 48 h
# [3] = test system: PC-3; test: Cytotoxicity against human PC3 cells assessed as cell growth at 10^-7 M after 48 hrs by SRB assay; conditions: PC-3, 48 h, read-out: Activity
# [4] = Cytotoxicity against human UO31 cells assessed as cell growth at 10^-6 M after 48 hrs by SRB assay; conditions: UO-31, 48 h, read-out: Activity
# [5] = test system: NCI-H522; test: Cytotoxicity against human NCI-H522 cells assessed as cell growth at 10^-7 M after 48 hrs by SRB assay; conditions: NCI-H522, 48 h, read-out: Activity
# [6] = test system: LOX IMVI; test: Cytotoxicity against human LOXIMVI cells assessed as cell growth at 10^-7 M after 48 hrs by SRB assay; conditions: read-out: Activity
# [7] = test system: MOLT-4; test: Cytotoxicity against human MOLT4 cells after 48 hrs by SRB assay; conditions: MOLT-4, 48 h
# [8] = test system: DU-145; test: Cytotoxicity against human DU145 cells assessed as cell growth at 10^-6 M after 48 hrs by SRB assay; conditions: DU-145, 48 h, read-out: Activity
# [9] = test system: HCC 2998; test: Cytotoxicity against human HCC2998 cells assessed as cell growth at 10^-7 M after 48 hrs by SRB assay; conditions: HCC 2998, 48 h, read-out: Activity
# [10] = Cytotoxicity against human Hs578T cells assessed as cell growth at 10^-8 M after 48 hrs by SRB assay; conditions: Hs-578T, read-out: Activity
# [11] = test system: SF-295; test: Cytotoxicity against human SF295 cells assessed as cell growth at 10^-8 M after 48 hrs by SRB assay; conditions: SF-295, 48 h, read-out: Activity
# [12] = test system: HL-60(TB); test: Cytotoxicity against human HL-60(TB) cells assessed as cell growth at 10^-8 M after 48 hrs by SRB assay; conditions: HL-60, 48 h, read-out: Activity
# [13] = test system: TK-10; test: Cytotoxicity against human TK10 cells assessed as cell growth at 10^-6 M after 48 hrs by SRB assay; conditions: TK-10, 48 h, read-out: Activity
# [14] = test system: U-251; test: Cytotoxicity against human U251 cells assessed as cell growth at 10^-6 M after 48 hrs by SRB assay; conditions: U-251, 48 h, read-out: Activity
# [15] = test system: MDA-MB-231; test: Cytotoxicity against human MDA-MB-231 cells assessed as cell growth at 10^-4 M after 48 hrs by SRB assay; conditions: MDA-MB-231, 48 h, read-out: Activity
# [16] = test system: SN12C; test: Cytotoxicity against human SN12C cells assessed as cell growth at 10^-8 M after 48 hrs by SRB assay; conditions: read-out: Activity
# [17] = test system: LOX IMVI; test: Cytotoxicity against human LOXIMVI cells assessed as cell growth at 10^-6 M after 48 hrs by SRB assay; conditions: read-out: Activity
# [18] = test system: SW-620; test: Cytotoxicity against human SW620 cells after 48 hrs by SRB assay; conditions: SW-620, 48 h
# [19] = test system: HT-29; test: Cytotoxicity against human HT-29 cells assessed as cell growth at 10^-8 M after 48 hrs by SRB assay; conditions: HT-29, 48 h, read-out: Activity
# [20] = test system: IGROV-1; test: Cytotoxicity against human IGROV1 cells after 48 hrs by SRB assay; conditions: IGROV-1, 48 h
# [21] = test system: A498; test: Cytotoxicity against human A498 cells assessed as cell growth at 10^-6 M after 48 hrs by SRB assay; conditions: A498, 48 h, read-out: Activity
# [22] = test system: SNB-19; test: Cytotoxicity against human SNB19 cells assessed as cell growth at 10^-6 M after 48 hrs by SRB assay; conditions: SNB-19, 48 h, read-out: Activity
# [23] = test system: NCI-H226; test: Cytotoxicity against human NCI-H226 cells assessed as cell growth at 10^-7 M after 48 hrs by SRB assay; conditions: NCI-H226, 48 h, read-out: Activity
# [24] = test system: K562; test: Cytotoxicity against human K562 cells assessed as cell growth at 10^-6 M after 48 hrs by SRB assay; conditions: K562, 48 h, read-out: Activity
# [25] = test system: MOLT-4; test: Cytotoxicity against human MOLT4 cells assessed as cell growth at 10^-8 M after 48 hrs by SRB assay; conditions: MOLT-4, 48 h, read-out: Activity
# [26] = test system: OVCAR-8; test: Cytotoxicity against human OVCAR8 cells assessed as cell growth at 10^-4 M after 48 hrs by SRB assay; conditions: OVCAR-8, 48 h, read-out: Activity
# [27] = test system: KM12; test: Cytotoxicity against human KM12 cells assessed as cell growth at 10^-4 M after 48 hrs by SRB assay; conditions: KM12, 48 h, read-out: Activity
# [28] = test system: HCT-116; test: Cytotoxicity against human HCT116 cells assessed as cell growth at 10^-7 M after 48 hrs by SRB assay; conditions: HCT-116, 48 h, read-out: Activity
# [29] = test system: HOP-62; test: Cytotoxicity against human HOP62 cells assessed as cell growth at 10^-4 M after 48 hrs by SRB assay; conditions: HOP-62, 48 h, read-out: Activity
# [30] = test system: SK-OV-3; test: Cytotoxicity against human SKOV3 cells after 48 hrs by SRB assay; conditions: SK-OV-3, 48 h
# [31] = test system: SN12C; test: Cytotoxicity against human SN12C cells after 48 hrs by SRB assay
# [32] = test system: UACC-62; test: Cytotoxicity against human UACC62 cells assessed as cell growth at 10^-6 M after 48 hrs by SRB assay; conditions: UACC-62, 48 h, read-out: Activity
# [33] = test system: SK-MEL-28; test: Cytotoxicity against human SK-MEL-28 cells assessed as cell growth at 10^-4 M after 48 hrs by SRB assay; conditions: SK-MEL-28, 48 h, read-out: Activity
# [34] = test system: RPMI-8226; test: Cytotoxicity against human RPMI8226 cells assessed as cell growth at 10^-8 M after 48 hrs by SRB assay; conditions: RPMI-8226, 48 h, read-out: Activity
# [35] = test system: RPMI-8226; test: Cytotoxicity against human RPMI8226 cells assessed as cell growth at 10^-7 M after 48 hrs by SRB assay; conditions: RPMI-8226, 48 h, read-out: Activity
# [36] = test system: MDA-MB-468; test: Cytotoxicity against human MDA-MB-468 cells assessed as cell growth at 10^-8 M after 48 hrs by SRB assay; conditions: MDA-MB-468, 48 h, read-out: Activity
# [37] = test system: TK-10; test: Cytotoxicity against human TK10 cells after 48 hrs by SRB assay; conditions: TK-10, 48 h
# [38] = test system: A498; test: Cytotoxicity against human A498 cells assessed as growth inhibition at 10 uM after 48 hrs by SRB assay; conditions: A498, 48 h, read-out: GI
smiles,measurement,setting,value
C=CCn1c(C)nc2cc(Nc3nc(Nc4ccc5nc(C)n(CC=C)c5c4)c4ccccc4n3)ccc21,growth at 100 µM,[1],-94%
same,GI50,[2],0.218 µM
same,growth at 0.1 µM,[3],96%
same,growth at 1 µM,[4],72%
same,growth at 0.1 µM,[5],90%
same,growth at 0.1 µM,[6],96%
same,GI50,[7],0.229 µM
same,LC50,[7],> 100 µM
same,TGI,[7],0.629 µM
same,growth at 1 µM,[8],18%
same,growth at 0.1 µM,[9],100%
same,growth at 0.01 µM,[10],90%
same,growth at 0.01 µM,[11],90%
same,growth at 0.01 µM,[12],98%
same,growth at 1 µM,[13],30%
same,growth at 1 µM,[14],-88%
same,growth at 100 µM,[15],-46%
same,growth at 0.01 µM,[16],94%
same,growth at 1 µM,[17],-85%
same,GI50,[18],0.195 µM
same,TGI,[18],0.388 µM
same,growth at 0.01 µM,[19],103%
same,GI50,[20],1.54 µM
same,TGI,[20],3.01 µM
same,growth at 1 µM,[21],93%
same,growth at 1 µM,[22],54%
same,growth at 0.1 µM,[23],82%
same,growth at 1 µM,[24],-45%
same,growth at 0.01 µM,[25],98%
same,growth at 100 µM,[26],1%
same,growth at 100 µM,[27],-77%
same,growth at 0.1 µM,[28],102%
same,growth at 100 µM,[29],-38%
same,GI50,[30],1.9 µM
same,TGI,[30],3.77 µM
same,GI50,[31],1.28 µM
same,TGI,[31],2.9 µM
same,growth at 1 µM,[32],66%
same,growth at 100 µM,[33],-48%
same,growth at 0.01 µM,[34],100%
same,growth at 0.1 µM,[35],100%
same,growth at 0.01 µM,[36],106%
same,GI50,[37],0.522 µM
same,LC50,[37],4.13 µM
same,TGI,[37],1.71 µM
C=CCn1c(C)nc2ccc(Nc3nc(Nc4ccc(F)cc4)nc4ccccc34)cc21,inhibition of growth at 10 µM,[38],40%
same,growth at 100 µM,[1],-92%
same,GI50,[2],3.13 µM
same,LC50 (concentration killing 50% of cells),[2],> 100 µM
same,TGI,[2],11.9 µM
same,growth at 0.1 µM,[3],92%
same,growth at 1 µM,[4],83%
same,growth at 0.1 µM,[5],84%
same,growth at 0.1 µM,[6],98%
same,GI50,[7],1.77 µM
same,LC50,[7],> 100 µM
same,TGI,[7],6.27 µM
same,growth at 1 µM,[8],95%
same,growth at 0.1 µM,[9],97%
same,growth at 0.01 µM,[10],92%
same,growth at 0.01 µM,[11],84%
same,growth at 0.01 µM,[12],94%
same,growth at 1 µM,[13],100%
same,growth at 1 µM,[14],83%
same,growth at 100 µM,[15],-37%
same,growth at 0.01 µM,[16],93%
same,growth at 1 µM,[17],96%
same,GI50,[18],2.8 µM
same,LC50 (concentration killing 50% of cells),[18],> 100 µM
same,TGI,[18],10.7 µM
same,growth at 0.01 µM,[19],100%
same,GI50,[20],6.09 µM
same,LC50,[20],98.7 µM
same,TGI,[20],27.2 µM
same,growth at 1 µM,[21],65%
same,growth at 1 µM,[22],86%
same,growth at 0.1 µM,[23],93%
same,growth at 1 µM,[24],96%
same,growth at 0.01 µM,[25],98%
same,growth at 100 µM,[26],-26%
same,growth at 100 µM,[27],-79%
same,growth at 0.1 µM,[28],97%
same,growth at 100 µM,[29],-46%
same,GI50,[30],1.93 µM
same,TGI,[30],3.74 µM
same,GI50,[31],2.78 µM
same,LC50,[31],> 100 µM
same,TGI,[31],15.1 µM
same,growth at 1 µM,[32],91%
same,growth at 100 µM,[33],-50%
same,growth at 0.01 µM,[34],106%
same,growth at 0.1 µM,[35],103%
same,growth at 0.01 µM,[36],78%
same,GI50,[37],6.83 µM
same,LC50,[37],75.5 µM
same,TGI,[37],24.6 µM
C=CCn1c(C)nc2ccc(Nc3nc(Sc4ccc(N)cc4)nc4ccccc34)cc21,inhibition of growth at 10 µM,[38],50%
C=CCn1c(C)nc2cc(Nc3nc(NCCO)nc4ccccc34)ccc21,inhibition of growth at 10 µM,[38],40%
C=CCn1c(C)nc2ccc(Nc3nc(Nc4ccc5nc(C)n(CC=C)c5c4)c4ccccc4n3)cc21,growth at 100 µM,[1],-61%
same,GI50,[2],1.42 µM
same,LC50 (concentration killing 50% of cells),[2],> 100 µM
same,growth at 0.1 µM,[3],88%
same,growth at 1 µM,[4],71%
same,growth at 0.1 µM,[5],91%
same,growth at 0.1 µM,[6],91%
same,GI50,[7],1.67 µM
same,LC50,[7],> 100 µM
same,growth at 1 µM,[8],104%
same,growth at 0.1 µM,[9],101%
same,growth at 0.01 µM,[10],95%
same,growth at 0.01 µM,[11],94%
same,growth at 0.01 µM,[12],97%
same,growth at 1 µM,[13],116%
same,growth at 1 µM,[14],89%
same,growth at 100 µM,[15],-63%
same,growth at 0.01 µM,[16],96%
same,growth at 1 µM,[17],83%
same,GI50,[18],1.5 µM
same,TGI,[18],2.94 µM
same,growth at 0.01 µM,[19],102%
same,GI50,[20],1.83 µM
same,TGI,[20],3.4 µM
same,growth at 1 µM,[21],42%
same,growth at 1 µM,[22],85%
same,growth at 0.1 µM,[23],86%
same,growth at 1 µM,[24],68%
same,growth at 0.01 µM,[25],101%
same,growth at 100 µM,[26],-18%
same,growth at 100 µM,[27],-31%
same,growth at 0.1 µM,[28],99%
same,growth at 100 µM,[29],-36%
same,GI50,[30],1.72 µM
same,LC50 (concentration killing 50% of cells),[30],5.56 µM
same,TGI,[30],3.09 µM
same,GI50,[31],1.62 µM
same,LC50,[31],5.45 µM
same,TGI,[31],2.98 µM
same,growth at 1 µM,[32],86%
same,growth at 100 µM,[33],-39%
same,growth at 0.01 µM,[34],99%
same,growth at 0.1 µM,[35],99%
same,growth at 0.01 µM,[36],93%
same,GI50,[37],2.04 µM
same,TGI,[37],3.5 µM

# From ChEMBL document CHEMBL3112450, “Synthesis and in vitro antitumor evaluation of primary amine substituted quinazoline linked benzimidazole” (Bioorg Med Chem Lett, 2014)
